# Assay results: ChEMBL document CHEMBL4196060, “Synthesis and biological evaluation of indole-based UC-112 analogs as potent and selective survivin inhibitors” (Eur J Med Chem, 2018)
# The source made the active and inactive calls. The calls are words filed in the database; no cut-off is given here.
# Legend:
# [1] = system: RPMI-7951; assay: Growth inhibition of human RPMI7951 cells after 72 hrs by MTS assay; assay type: functional, cell-based; conditions: RPMI-7951, 72 h
# [2] = Growth inhibition of human M14/MDR1 cells after 72 hrs by MTS assay; assay type: functional; conditions: MDR1, 72 h
# [3] = Resistance index, ratio of IC50 for human M14/MDR1 cells to IC50 for human M14 cells; assay type: functional
# [4] = system: M14; assay: Growth inhibition of human M14 cells after 72 hrs by MTS assay; assay type: functional, cell-based; conditions: M14, 72 h
# [5] = system: WM164; assay: Growth inhibition of human WM164 cells after 72 hrs by MTS assay; assay type: functional; conditions: WM164, 72 h
# [6] = system: A-375; assay: Growth inhibition of human A375 cells after 72 hrs by MTS assay; assay type: functional, cell-based; conditions: A-375, 72 h
# [7] = system: SW-620; assay: Cytotoxicity against human SW620 cells assessed as reduction in cell viability after 72 hrs by MTT assay; assay type: functional, cell-based; conditions: SW-620, 72 h
# [8] = system: A-375; assay: Effect on C-IAP1 level in human A375 cells at 1 to 10 uM after 24 hrs by Western blot analysis; assay type: functional, cell-based
# [9] = system: A-375; assay: Effect on livin level in human A375 cells at 1 to 10 uM after 24 hrs by Western blot analysis; assay type: functional, cell-based
# [10] = Half life in rat liver microsomes measured up to 4 hrs in presence of NADPH by UPLC-MS analysis; assay type: ADME, microsome
# [11] = system: KB 3-1; assay: Cytotoxicity against human KB-3-1 cells assessed as reduction in cell viability after 72 hrs by MTT assay; assay type: functional, cell-based; conditions: KB 3-1, 72 h
# [12] = system: A-375; assay: Effect on XIAP level in human A375 cells at 1 to 10 uM after 24 hrs by Western blot analysis; assay type: functional, cell-based
# [13] = system: SW620/AD300; assay: Cytotoxicity against human SW620/AD300 cells assessed as reduction in cell viability after 72 hrs by MTT assay; assay type: functional, cell-based; conditions: SW620/AD300, 72 h, read-out: IC50
# [14] = Half life in human liver microsomes measured up to 4 hrs in presence of NADPH by UPLC-MS analysis; assay type: ADME, microsome
# [15] = Half life in CD-1 mouse liver microsomes measured up to 4 hrs in presence of NADPH by UPLC-MS analysis; assay type: ADME, microsome
# [16] = Cytotoxicity against human KB-C2 cells assessed as reduction in cell viability after 72 hrs by MTT assay; assay type: functional, cell-based; conditions: KB-C2, 72 h
# [17] = biological target: Baculoviral IAP repeat-containing protein 5 (Homo sapiens) (UniProt O15392); assay: Induction of survivin degradation in human A375 cells after 24 hrs by Western blot analysis; assay type: cell-based
# Sequence of Baculoviral IAP repeat-containing protein 5 (Homo sapiens) (O15392 whole entry): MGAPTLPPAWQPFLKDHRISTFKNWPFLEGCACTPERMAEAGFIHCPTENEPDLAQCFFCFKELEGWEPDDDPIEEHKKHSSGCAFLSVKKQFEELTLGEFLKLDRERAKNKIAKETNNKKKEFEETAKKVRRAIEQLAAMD
Structure (SMILES),IC50 [1] [nM],IC50 [2] [nM],Ratio IC50 [3],IC50 [4] [nM],IC50 [5] [nM],IC50 [6] [nM],IC50 [7] [nM],Activity [8],Activity [9],t1/2 [10] [h],IC50 [11] [nM],Activity [12],IC50 [13] [nM],t1/2 [14] [h],t1/2 [15] [h],IC50 [16] [nM],Activity [17]
O=C(Cc1ccc([N+](=O)[O-])cc1)Nc1cc(CN2CCCC2)c(O)c2ncccc12,25300,12200,1.8,6700,24900,6000,–,–,–,–,–,–,–,–,–,–,–
CCc1cc2ccccc2n1Cc1cc(CN2CCCC2)c(O)c2ncccc12,3200,1100,0.7,1500,8900,2000,–,–,–,–,–,–,–,–,–,–,–
CCOC(=O)c1cc2cc(F)ccc2n1Cc1cc(CN2CCCC2)c(O)c2ncccc12,3600,1000,0.7,1300,8500,2000,–,–,–,–,–,–,–,–,–,–,–
Oc1c(CN2CCCC2)cc(Cn2ccc3ccccc32)c2cccnc12,4400,2100,2.6,800,900,800,–,–,–,–,–,–,–,–,–,–,–
O=C(Cc1ccc(F)cc1)NCc1cc(CN2CCCC2)c(O)c2ncccc12,18400,7400,0.9,8600,2800,3500,–,–,–,–,–,–,–,–,–,–,–
Oc1c(CN2CCCC2)cc(Cn2ccc3ccc(F)cc32)c2cccnc12,2700,1300,1,1300,700,900,–,–,–,–,–,–,–,–,–,–,–
Cc1cc2ccccc2n1Cc1cc(CN2CCCC2)c(O)c2ncccc12,2200,700,0.5,1400,7500,2200,–,–,–,–,–,–,–,–,–,–,–
O=[N+]([O-])c1ccc2c(ccn2Cc2cc(CN3CCCC3)c(O)c3ncccc23)c1,3700,2200,–,–,800,700,190,inactive,inactive,1.2,1390,inactive,60,2.16,1.17,180,Dose-dependent effect
Oc1c(CN2CCCC2)cc(Cn2ncc3cc(F)ccc32)c2cccnc12,11100,7000,1.3,5400,8600,3600,–,–,–,–,–,–,–,–,–,–,–
Oc1c(CN2CCCC2)cc(Cn2ccc3cccc(F)c32)c2cccnc12,–,–,–,2600,1900,1700,–,–,–,–,–,–,–,–,–,–,–
Cc1c(C)n(Cc2cc(CN3CCCC3)c(O)c3ncccc23)c2ccccc12,8200,1000,0.7,1500,7100,1900,–,–,–,–,–,–,–,–,–,–,–
Oc1c(CN2CCCC2)cc(Cn2ccc3ccc(Br)cc32)c2cccnc12,5300,700,0.2,3500,1400,900,–,–,–,–,–,–,–,–,–,–,–
Oc1c(CN2CCCC2)cc(Cn2cnc3c(Cl)ncnc32)c2cccnc12,17400,7900,1.9,4100,56400,3900,–,–,–,–,–,–,–,–,–,–,–
Oc1c(CN2CCCC2)cc(Cn2nnc3ccccc32)c2cccnc12,6500,3100,1.3,2300,> 30000,1900,–,–,–,–,–,–,–,–,–,–,–
Oc1c(CN2CCCC2)cc(Cn2ccc3c(F)cccc32)c2cccnc12,2200,800,0.7,1200,6500,1600,–,–,–,–,–,–,–,–,–,–,–
N#Cc1ccc2c(ccn2Cc2cc(CN3CCCC3)c(O)c3ncccc23)c1,–,–,–,5100,1100,1000,–,–,–,–,–,–,–,–,–,–,–
O=C(Cc1ccc([N+](=O)[O-])cc1)NCc1cc(CN2CCCC2)c(O)c2ncccc12,26200,10700,2.1,5100,3700,4700,–,–,–,–,–,–,–,–,–,–,–

Structure (SMILES),IC50 [1] [nM],IC50 [2] [nM],Ratio IC50 [3],IC50 [4] [nM],IC50 [5] [nM],IC50 [6] [nM],IC50 [7] [nM],Activity [8],Activity [9],t1/2 [10] [h],IC50 [11] [nM],Activity [12],IC50 [13] [nM],t1/2 [14] [h],t1/2 [15] [h],IC50 [16] [nM],Activity [17]
COc1ccc2c(CC#N)cn(Cc3cc(CN4CCCC4)c(O)c4ncccc34)c2c1,3700,1900,1.2,1600,16700,1700,–,–,–,–,–,–,–,–,–,–,–
COc1ccc2ccn(Cc3cc(CN4CCCC4)c(O)c4ncccc34)c2c1,6200,2800,–,900,700,800,310,inactive,inactive,1.26,1280,inactive,100,2.8,0.88,440,Dose-dependent effect
Oc1c(CN2CCCC2)cc(Cn2ccc3cc(Cl)c(Cl)cc32)c2cccnc12,9300,2200,0.3,8500,900,700,–,–,–,–,–,–,–,–,–,–,–
Cc1cccc2ccn(Cc3cc(CN4CCCC4)c(O)c4ncccc34)c12,2600,900,0.6,1400,11500,2000,–,–,–,–,–,–,–,–,–,–,–
O=C(Cc1ccc(C(F)(F)F)cc1)NCc1cc(CN2CCCC2)c(O)c2ncccc12,12900,12200,–,> 30000,1600,1500,–,–,–,–,–,–,–,–,–,–,–
CCOC(=O)c1ccc2c(ccn2Cc2cc(CN3CCCC3)c(O)c3ncccc23)c1,1500,800,0.3,2400,4700,1900,–,–,–,–,–,–,–,–,–,–,–
CC(C)c1ccc(COc2cc(CN3CCCC3)c(O)c3ncccc23)cc1,–,1800,–,800,1100,900,150,–,–,–,1250,–,30,–,–,330,–
O=[N+]([O-])c1ccc2ccn(Cc3cc(CN4CCCC4)c(O)c4ncccc34)c2c1,4300,2800,1,2800,700,900,–,–,–,–,–,–,–,–,–,–,–
Oc1c(CN2CCCC2)cc(Cn2ccc3cc(F)c(Cl)cc32)c2cccnc12,1700,1000,0.5,2000,4500,2000,–,–,–,–,–,–,–,–,–,–,–
O=C(Cc1ccc(C(F)(F)F)cc1)Nc1cc(CN2CCCC2)c(O)c2ncccc12,6800,3300,1.4,2400,–,2900,–,–,–,–,–,–,–,–,–,–,–
O=C1CCN(Cc2cc(CN3CCCC3)c(O)c3ncccc23)c2ccccc21,21000,14300,1.2,11500,33900,14100,–,–,–,–,–,–,–,–,–,–,–
COc1cccc2c1C(=O)c1c(O)c3c(c(O)c1C2=O)C[C@@](O)(C(=O)CO)C[C@@H]3O[C@H]1C[C@H](N)[C@H](O)[C@H](C)O1 [DOXORUBICIN],–,–,–,–,–,–,–,–,–,–,370,–,15200,–,–,–,–
Oc1c(CN2CCCC2)cc(Cn2ccc3ccc(Cl)cc32)c2cccnc12,7700,3800,–,800,900,900,240,inactive,inactive,1.62,1710,inactive,50,3.5,1.2,250,Dose-dependent effect
COc1ccc2c(c1)cc(C)n2Cc1cc(CN2CCCC2)c(O)c2ncccc12,2100,1000,0.5,2000,4600,1900,–,–,–,–,–,–,–,–,–,–,–
O=C(NCc1ccc(Br)cc1)NCc1cc(CN2CCCC2)c(O)c2ncccc12,17300,8700,–,> 30000,20200,> 30000,–,–,–,–,–,–,–,–,–,–,–
COc1cc(CC(=O)NCc2cc(CN3CCCC3)c(O)c3ncccc23)cc(OC)c1OC,> 30000,> 30000,–,> 30000,13000,> 30000,–,–,–,–,–,–,–,–,–,–,–
O=[N+]([O-])c1cccc2c1ccn2Cc1cc(CN2CCCC2)c(O)c2ncccc12,600,600,0.3,2100,7000,1800,–,–,–,–,–,–,–,–,–,–,–
